Converted amounts (≈) assume the structure as drawn. The source made the active and inactive calls. The rule behind the calls is not given here.
Tests used:
Klebsiella pneumoniae [1] = experiment: Antibacterial activity against carbapenemase/Klebsiella pneumoniae CECT-997 by broth microdilution method; format: functional
Klebsiella pneumoniae [2] = experiment: Antibacterial activity against Klebsiella pneumoniae CECT-997 assessed as inhibition of growth at 50 uM after 18 hrs; format: functional, organism-based
Klebsiella pneumoniae [3] = experiment: Antibacterial activity against colistin-susceptible VIM1/carbapenemase-producing Klebsiella pneumoniae 07 assessed as inhibition of growth at 50 uM after 18 hrs; format: functional, organism-based
Klebsiella pneumoniae [4] = experiment: Antibacterial activity against colistin-resistant VIM1/DHAI/carbapenemase-producing Klebsiella pneumoniae 21 assessed as inhibition of growth at 50 uM after 18 hrs; format: functional, organism-based
Klebsiella pneumoniae [5] = experiment: Antibacterial activity against colistin-susceptible OXA-48/CTX-M-15/carbapenemase-producing Klebsiella pneumoniae 28 assessed as inhibition of growth at 50 uM after 18 hrs; format: functional, organism-based
Klebsiella pneumoniae [6] = experiment: Antibacterial activity against colistin-resistant OXA-48/CTX-M-15/carbapenemase-producing Klebsiella pneumoniae 29 assessed as inhibition of growth at 50 uM after 18 hrs; format: functional, organism-based
Klebsiella pneumoniae [7] = experiment: Antibacterial activity against colistin-susceptible OXA-48/CTX-M-15/carbapenemase-producing Klebsiella pneumoniae 28 by broth microdilution method; format: functional
Klebsiella pneumoniae [8] = experiment: Antibacterial activity against colistin-susceptible NDM-1/carbapenemase-producing Klebsiella pneumoniae assessed as inhibition of growth at 50 uM after 18 hrs; format: functional, organism-based
Klebsiella pneumoniae [9] = experiment: Antibacterial activity against colistin-susceptible NDM-1/carbapenemase-producing Klebsiella pneumoniae by broth microdilution method; format: functional
Escherichia coli [10] = experiment: Antibacterial activity against colistin-susceptible NDM1/KPC-producing Escherichia coli assessed as inhibition of growth at 50 uM after 18 hrs; format: functional, organism-based
Escherichia coli [11] = experiment: Antibacterial activity against colistin-susceptible NDM1/KPC-producing Escherichia coli by broth microdilution method; format: functional
Klebsiella aerogenes [12] = experiment: Antibacterial activity against colistin-resistant Enterobacter aerogenes 3 assessed as inhibition of growth at 50 uM after 18 hrs; format: functional, organism-based
Enterobacter cloacae [13] = experiment: Antibacterial activity against colistin-resistant Enterobacter cloacae 32 assessed as inhibition of growth at 50 uM after 18 hrs; format: functional, organism-based
Klebsiella aerogenes [14] = experiment: Antibacterial activity against colistin-resistant Enterobacter aerogenes 53 assessed as inhibition of growth at 50 uM after 18 hrs; format: functional, organism-based
Enterobacter cloacae [15] = experiment: Antibacterial activity against colistin-resistant Enterobacter cloacae 142 assessed as inhibition of growth at 50 uM after 18 hrs; format: functional, organism-based
Enterobacter cloacae [16] = experiment: Antibacterial activity against colistin-resistant Enterobacter cloacae 190 assessed as inhibition of growth at 50 uM after 18 hrs; format: functional, organism-based
Enterobacter cloacae [17] = experiment: Antibacterial activity against colistin-resistant Enterobacter cloacae 263 assessed as inhibition of growth at 50 uM after 18 hrs; format: functional, organism-based
Enterobacter cloacae [18] = experiment: Antibacterial activity against colistin-resistant Enterobacter cloacae 272 assessed as inhibition of growth at 50 uM after 18 hrs; format: functional, organism-based
Enterobacter cloacae [19] = experiment: Antibacterial activity against colistin-resistant Enterobacter cloacae 280 assessed as inhibition of growth at 50 uM after 18 hrs; format: functional, organism-based
Enterobacter cloacae [20] = experiment: Antibacterial activity against colistin-resistant Enterobacter cloacae 280 by broth microdilution method; format: functional
Enterobacter cloacae [21] = experiment: Antibacterial activity against colistin-resistant Enterobacter cloacae 297 assessed as inhibition of growth at 50 uM after 18 hrs; format: functional, organism-based
Enterobacter cloacae [22] = experiment: Antibacterial activity against colistin-resistant Enterobacter cloacae 297 by broth microdilution method; format: functional
Escherichia coli [23] = experiment: Synergistic antibacterial activity against colistin-susceptible NDM1/KPC-producing Escherichia coli in presence of colistin by checkerboard assay; format: functional
Klebsiella pneumoniae [24] = experiment: Synergistic antibacterial activity against colistin-susceptible NDM-1/carbapenemase-producing Klebsiella pneumoniae in presence of colistin by checkerboard assay; format: functional
Escherichia coli [25] = experiment: Bactericidal activity against colistin-susceptible NDM-1/KPC-producing Escherichia coli assessed as reduction in bacterial count at MIC measured after 2 hrs by time kill assay; format: functional, organism-based
Escherichia coli [26] = experiment: Bactericidal activity against colistin-susceptible NDM-1/KPC-producing Escherichia coli assessed as reduction in bacterial count at MIC measured after 2 hrs in presence of colistin by time kill assay; format: functional, organism-based
Klebsiella pneumoniae [27] = experiment: Synergistic bactericidal activity against OXA-48/CTX-M-15/carbapenemase-producing Klebsiella pneumoniae 28 assessed as reduction in bacterial count at MIC measured after 8 hrs in presence of colistin by time kill assay; format: functional, organism-based
Klebsiella pneumoniae [28] = experiment: Bactericidal activity against OXA-48/CTX-M-15/carbapenemase-producing Klebsiella pneumoniae 28 assessed as reduction in bacterial count at MIC measured from 4 to 8 hrs in presence of colistin by time kill assay; format: functional, organism-based
Enterobacter cloacae [29] = experiment: Synergistic antibacterial activity against colistin-resistant Enterobacter cloacae 280 in presence of colistin by checkerboard assay; format: functional
Enterobacter cloacae [30] = experiment: Synergistic antibacterial activity against colistin-resistant Enterobacter cloacae 297 in presence of colistin by checkerboard assay; format: functional
Enterobacter cloacae [31] = experiment: Bactericidal activity against colistin-resistant Enterobacter cloacae 280 assessed as reduction in bacterial count at MIC measured after 2 hrs in presence of colistin by time kill assay; format: functional, organism-based
Enterobacter cloacae [32] = experiment: Synergistic bactericidal activity against colistin-resistant Enterobacter cloacae 280 assessed as reduction in bacterial count at MIC measured after 8 hrs in presence of colistin by time kill assay; format: functional, organism-based
Klebsiella pneumoniae [33] = experiment: Antibacterial activity against colistin-susceptible VIM1/carbapenemase-producing Klebsiella pneumoniae 07 by broth microdilution method; format: functional, organism-based
Klebsiella pneumoniae [34] = experiment: Antibacterial activity against colistin-resistant VIM1/DHAI/carbapenemase-producing Klebsiella pneumoniae 21 by broth microdilution method; format: functional, organism-based
Klebsiella pneumoniae [35] = experiment: Antibacterial activity against colistin-resistant OXA-48/CTX-M-15/carbapenemase-producing Klebsiella pneumoniae 29 by broth microdilution method; format: functional, organism-based
Klebsiella aerogenes [36] = experiment: Antibacterial activity against colistin-resistant Enterobacter aerogenes 3 by broth microdilution method; format: functional, organism-based
Enterobacter cloacae [37] = experiment: Antibacterial activity against colistin-resistant Enterobacter cloacae 32 by broth microdilution method; format: functional, organism-based
Klebsiella aerogenes [38] = experiment: Antibacterial activity against colistin-resistant Enterobacter aerogenes 53 by broth microdilution method; format: functional, organism-based
Enterobacter cloacae [39] = experiment: Antibacterial activity against colistin-resistant Enterobacter cloacae 142 by broth microdilution method; format: functional, organism-based
Enterobacter cloacae [40] = experiment: Antibacterial activity against colistin-resistant Enterobacter cloacae 190 by broth microdilution method; format: functional, organism-based
Enterobacter cloacae [41] = experiment: Antibacterial activity against colistin-resistant Enterobacter cloacae 263 by broth microdilution method; format: functional, organism-based
Enterobacter cloacae [42] = experiment: Antibacterial activity against colistin-resistant Enterobacter cloacae 272 by broth microdilution method; format: functional, organism-based
Klebsiella pneumoniae [43] = experiment: Synergistic bactericidal activity against OXA-48/CTX-M-15/carbapenemase-producing Klebsiella pneumoniae 28 assessed as reduction in bacterial count at MIC measured after 2 hrs in presence of colistin by time kill assay; format: functional, organism-based
Klebsiella pneumoniae [44] = experiment: Bactericidal activity against OXA-48/CTX-M-15/carbapenemase-producing Klebsiella pneumoniae 28 assessed as reduction in bacterial count at MIC measured from 2 hrs in presence of colistin by time kill assay; format: functional, organism-based

NCCCCOc1ccc(Cl)cc1C(=O)Nc1ccc([N+](=O)[O-])cc1Cl
MIC (Klebsiella pneumoniae [1]): 15 µg/mL (≈ 37.7 µM) | growth inhibition (GI) (Klebsiella pneumoniae [2]): Active | growth inhibition (GI) (Klebsiella pneumoniae [3]): inactive | growth inhibition (GI) (Klebsiella pneumoniae [4]): inactive | growth inhibition (GI) (Klebsiella pneumoniae [5]): Active | growth inhibition (GI) (Klebsiella pneumoniae [6]): inactive | MIC (Klebsiella pneumoniae [7]): 15 µg/mL (≈ 37.7 µM) | growth inhibition (GI) (Klebsiella pneumoniae [8]): Active | MIC (Klebsiella pneumoniae [9]): > 15 µg/mL | growth inhibition (GI) (Escherichia coli [10]): Active | MIC (Escherichia coli [11]): 15 µg/mL (≈ 37.7 µM) | growth inhibition (GI) (Klebsiella aerogenes [12]): inactive | growth inhibition (GI) (Enterobacter cloacae [13]): inactive | growth inhibition (GI) (Klebsiella aerogenes [14]): inactive | growth inhibition (GI) (Enterobacter cloacae [15]): inactive | growth inhibition (GI) (Enterobacter cloacae [16]): inactive | growth inhibition (GI) (Enterobacter cloacae [17]): inactive | growth inhibition (GI) (Enterobacter cloacae [18]): inactive | growth inhibition (GI) (Enterobacter cloacae [19]): Active | MIC (Enterobacter cloacae [20]): > 15 µg/mL | growth inhibition (GI) (Enterobacter cloacae [21]): Active | MIC (Enterobacter cloacae [22]): > 15 µg/mL | fractional inhibitory concentration index (FICI) (Escherichia coli [23]): 0.25 | fractional inhibitory concentration index (FICI) (Klebsiella pneumoniae [24]): 0.5 | Activity (Escherichia coli [25]): Active | Activity (Escherichia coli [26]): Active | Activity (Klebsiella pneumoniae [27]): Active | Activity (Klebsiella pneumoniae [28]): Active

O=C(Nc1ccc([N+](=O)[O-])cc1Cl)c1cc(Cl)ccc1O [NICLOSAMIDE]
MIC (Klebsiella pneumoniae [1]): inactive | growth inhibition (GI) (Klebsiella pneumoniae [2]): inactive | growth inhibition (GI) (Klebsiella pneumoniae [3]): inactive | growth inhibition (GI) (Klebsiella pneumoniae [4]): inactive | growth inhibition (GI) (Klebsiella pneumoniae [5]): inactive | growth inhibition (GI) (Klebsiella pneumoniae [6]): inactive | MIC (Klebsiella pneumoniae [7]): inactive | growth inhibition (GI) (Klebsiella pneumoniae [8]): inactive | MIC (Klebsiella pneumoniae [9]): inactive | growth inhibition (GI) (Escherichia coli [10]): inactive | MIC (Escherichia coli [11]): inactive | growth inhibition (GI) (Klebsiella aerogenes [12]): inactive | growth inhibition (GI) (Enterobacter cloacae [13]): inactive | growth inhibition (GI) (Klebsiella aerogenes [14]): inactive | growth inhibition (GI) (Enterobacter cloacae [15]): inactive | growth inhibition (GI) (Enterobacter cloacae [16]): inactive | growth inhibition (GI) (Enterobacter cloacae [17]): inactive | growth inhibition (GI) (Enterobacter cloacae [18]): inactive | growth inhibition (GI) (Enterobacter cloacae [19]): Active | MIC (Enterobacter cloacae [20]): > 15 µg/mL | growth inhibition (GI) (Enterobacter cloacae [21]): Active | MIC (Enterobacter cloacae [22]): > 15 µg/mL | fractional inhibitory concentration index (FICI) (Enterobacter cloacae [29]): 0.25 | fractional inhibitory concentration index (FICI) (Enterobacter cloacae [30]): 0.25 | Activity (Enterobacter cloacae [31]): Active | Activity (Enterobacter cloacae [32]): Active

COLISTIN
MIC (Klebsiella pneumoniae [33]): 0.5 µg/mL | MIC (Klebsiella pneumoniae [34]): 64 µg/mL | MIC (Klebsiella pneumoniae [7]): 0.5 µg/mL | MIC (Klebsiella pneumoniae [35]): 32 µg/mL | MIC (Klebsiella pneumoniae [9]): 0.5 µg/mL | MIC (Escherichia coli [11]): 0.5 µg/mL | MIC (Klebsiella aerogenes [36]): 32 µg/mL | MIC (Enterobacter cloacae [37]): > 256 µg/mL | MIC (Klebsiella aerogenes [38]): 32 µg/mL | MIC (Enterobacter cloacae [39]): 64 µg/mL | MIC (Enterobacter cloacae [40]): 32 µg/mL | MIC (Enterobacter cloacae [41]): 8 µg/mL | MIC (Enterobacter cloacae [42]): 16 µg/mL | MIC (Enterobacter cloacae [20]): 32 µg/mL | MIC (Enterobacter cloacae [22]): 3 µg/mL | Activity (Escherichia coli [25]): Active

NCCCCCOc1ccc(Cl)cc1C(=O)Nc1ccc([N+](=O)[O-])cc1Cl
MIC (Klebsiella pneumoniae [1]): inactive | growth inhibition (GI) (Klebsiella pneumoniae [2]): inactive | growth inhibition (GI) (Klebsiella pneumoniae [3]): inactive | growth inhibition (GI) (Klebsiella pneumoniae [4]): inactive | growth inhibition (GI) (Klebsiella pneumoniae [5]): Active | growth inhibition (GI) (Klebsiella pneumoniae [6]): inactive | MIC (Klebsiella pneumoniae [7]): 15 µg/mL (≈ 36.4 µM) | growth inhibition (GI) (Klebsiella pneumoniae [8]): Active | MIC (Klebsiella pneumoniae [9]): > 15 µg/mL | growth inhibition (GI) (Escherichia coli [10]): Active | MIC (Escherichia coli [11]): > 15 µg/mL | growth inhibition (GI) (Klebsiella aerogenes [12]): inactive | growth inhibition (GI) (Enterobacter cloacae [13]): inactive | growth inhibition (GI) (Klebsiella aerogenes [14]): inactive | growth inhibition (GI) (Enterobacter cloacae [15]): inactive | growth inhibition (GI) (Enterobacter cloacae [16]): inactive | growth inhibition (GI) (Enterobacter cloacae [17]): inactive | growth inhibition (GI) (Enterobacter cloacae [18]): inactive | growth inhibition (GI) (Enterobacter cloacae [19]): inactive | MIC (Enterobacter cloacae [20]): inactive | growth inhibition (GI) (Enterobacter cloacae [21]): inactive | MIC (Enterobacter cloacae [22]): inactive | fractional inhibitory concentration index (FICI) (Escherichia coli [23]): 0.38 | Activity (Klebsiella pneumoniae [43]): Active | Activity (Klebsiella pneumoniae [44]): Active
